These results are taken from patent US20250074891A1 (Anaxis Pharma Pty Ltd., priority 2021, published 2025).

One assay addresses MLKL (full length) (Homo sapiens (Human), UniProt Q8NB16). Put plainly: KINOMEscan binding assay, MLKL (full length). Conditions: Table 36. As to the method: Kinase assays. For most assays, kinase-tagged T7 phage strains were grown in parallel in 24-well blocks in an E. coli host derived from the BL21 strain. E. coli were grown to log-phase and infected with T7 phage from a frozen stock (multiplicity of infection=0.4) and incubated with shaking at 32° C. until lysis (90-150 minutes).
The Hill Slope was set to −1.

The test system of assay [1] is U937 human histiocytic leukemia cell line. The assay can be described thus: Cellular assay: inhibition of TSQ induced necroptosis (CellTitre-Glo). Conditions: Homo sapiens, U-937; U937 cells, TSQ cocktail, 48 hours, Table 38; read-out: Inhibition of TSQ-induced necroptosis (IC50 cell-based assay). As to the method:
[…] ASSAY: Screening compounds for inhibition of TSQ induced necroptosis, 384 well plate format.
Cell Line ID: U937 human histiocytic leukemia cell line.
Cell Concentration (cells/well): Final cell density is 20,000 cells per well.
Cell growth medium: HT-RPMI medium+7.4% Fetal Bovine Serum (FBS). Cells are cultured in Corning 150 cm^z tissue culture flasks with vented caps at 37° C./5% CO2.
Incubation: Plates were incubated at 37° C./5% CO2 in a humidified incubator for 48 hours following addition of compounds and death stimuli (TSQ cocktail).
Compound concentration: 36 μM starting concentration, 1:3 dilution, 10 point
DMSO final concentration (% v/v): 0.3%.
Compounds in TSQ cocktail (T: TNF; S: Smac mimetic; Q: Q-VD-OPh) and their final concentrations: • hTNF-Fc (100 ng/ml)—produced by standard procedures as shown in Bossen et al., J Biol Chem, 2006, 281(20), 13964-13971. • Compound A (500 nM)—Smac mimetic, Tetralogic and SYNthesis med chem • Q-VD-OPh (10 μM)—MP Biomedicals
The cellular assay was carried out according to the following steps: • 1. Each well was prepared by sequential addition of: • a. DMSO (control; columns 1-2 and 23-24) or compound in DMSO—addition was performed using acoustic transfer of nl volumes of stock compound to give final test concentrations of 36, 12, 4, 1.3, 0.44, 0.148, 0.049, 0.016, 0.005 and 0.002 μM. All wells were backfilled with DMSO to a final total volume in the well of 100 nl. • b. Following compound/DMSO addition in step (a), 40 μL of cell suspension (5×10^5 cells/mL) was added to provide a final cell concentration of 20,000 cells per well, and • c. Following cell addition in step (b), 10 μL of 5×TSQ cocktail (except to positive controls; […]) was added to each well. • 2. After 48 hours, plate was removed from the 37° C. incubator and equilibrated to room temperature for 45 minutes. • 3. 15 μL of room temperature CellTitre-Glo2™ (Promega™) was added to each well. • 4. Shook plates for 2 minutes (˜600 rpm) and incubated at room temperature for 15 minutes to allow signal to stabilise. • 5. Read luminescence readout on a plate reader.
Percent viability was calculated for each compound according to equation (2):
[formula] • wherein • RawData is the readout of any cell containing a compound of the invention • TA is the total activity provided by the luminescence readout from DMSO only wells (columns 2 and 24)=100% viability • NSA is the non-specific activity provided by DMSO+TSQ wells (columns 1 and 23)=0% viability
Curve fitting: 10-point titration curves are fitted with the 4-parameter logistic nonlinear regression model and the IC50 reported is the inflection point of the curve.
Analysis: Data was loaded into Dotmatics™ and visualised using the Tibco® Spotfire™ software. 10 points titration curves were fitted with the 4-parameter logistic nonlinear regression model and the IC50 reported reflect the inflection point of the curve for curve fitting.
Assay involving the TSQ cocktail (T: TNF; S: Smac mimetic; Q: Q-VD-OPh): TSQ treatment ensures that cells specifically undergo necroptotic cell death. TNF activates the TNF receptor, Smac mimetic directs the signal away from proinflammatory signaling and toward the RIP1/RIP3-mediated cell death pathways, and Q-VD-OPh ensures that the apoptotic response is blocked leaving only the programmed necrosis response. The compounds' activity (solution in DMSO) tested in this TSQ-induced assay was evaluated by determining the number of viable cells in culture by measuring the amount of ATP present as measured by CelltiterGlo.

In a further assay the test system is U937 cells. The assay can be described thus: Counter screen: cell viability without TSQ cocktail (off-target effect). Also on record: species or system human. The conditions noted are these: Homo sapiens, U-937, Table 38, read-out: Off-target effect (IC50 cell-based assay). As to the method: Counter screen: In parallel, all compounds were tested for their ability to affect cell viability. The same U937 cells were treated with compound in DMSO without the TSQ cocktail. This counter screen enabled evaluation of off-target effects. In this case, cell viability was measured by CelltiterGlo.

Chain of MLKL (full length) (Q8NB16 whole entry): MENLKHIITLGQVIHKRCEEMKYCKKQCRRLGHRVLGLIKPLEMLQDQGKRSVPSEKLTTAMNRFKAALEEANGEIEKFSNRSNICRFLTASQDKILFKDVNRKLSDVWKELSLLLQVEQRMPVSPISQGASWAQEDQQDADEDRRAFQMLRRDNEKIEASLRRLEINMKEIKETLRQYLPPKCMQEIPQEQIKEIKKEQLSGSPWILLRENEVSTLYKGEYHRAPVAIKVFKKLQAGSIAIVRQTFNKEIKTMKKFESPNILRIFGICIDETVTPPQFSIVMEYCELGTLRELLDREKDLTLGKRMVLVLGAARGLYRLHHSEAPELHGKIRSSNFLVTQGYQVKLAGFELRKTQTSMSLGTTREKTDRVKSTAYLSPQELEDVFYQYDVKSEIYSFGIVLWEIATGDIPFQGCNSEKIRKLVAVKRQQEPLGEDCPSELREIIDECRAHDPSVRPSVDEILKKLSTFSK

In general, Kd refers to a measure of binding affinity in units of concentration. Higher therefore signals lower affinity. By IC50 is commonly meant the concentration needed to halve the response being measured. The compound `Cc1ncsc1-c1ccc(CNC(=O)[C@@H]2C[C@@H](O)CN2C(=O)[C@@H](NC(=O)CCCn2ccc(Nc3[nH]nc(-c4ccc(NS(=O)(=O)C(F)F)c(O[C@@H](C)c5ccc(F)cc5)c4)c3C(N)=O)n2)C(C)(C)C)cc1` [Compound 1033, 3-[4-(difluoromethanesulfonamido)-3-[(1S)-1-(4-fluorophenyl)ethoxy]phenyl]-5-{[1-(3-{[(2S)-1-[(2S,4R)-4-hydroxy-2-({[4-(4-methyl-1,3-thiazol-5-yl)phenyl]methyl}carbamoyl)pyrrolidin-1-yl]-3,3-dimethyl-1-oxobutan-2-yl]carbamoyl}propyl)-1H-pyrazol-3-yl]amino}-1H-pyrazole-4-carboxamide] yielded a Kd at MLKL (full length) of under 10 nM. Further, the results for the IC50 (in assay [1]; with U937 cells) were 1000 to 10000 nM and over 10000 nM, respectively.
On the same counts, the results for `Cc1ncsc1-c1ccc(CNC(=O)[C@@H]2C[C@@H](O)CN2C(=O)[C@@H](NC(=O)COCCn2ccc(Nc3[nH]nc(-c4ccc(NS(=O)(=O)C(F)F)c(O[C@@H](C)c5ccc(F)cc5)c4)c3C(N)=O)n2)C(C)(C)C)cc1` [Compound 1036, 3-[4-(difluoromethanesulfonamido)-3-[(1S)-1-(4-fluorophenyl)ethoxy]phenyl]-5-({1-[2-({[(2S)-1-[(2S,4R)-4-hydroxy-2-({[4-(4-methyl-1,3-thiazol-5-yl)phenyl]methyl}carbamoyl)pyrrolidin-1-yl]-3,3-dimethyl-1-oxobutan-2-yl]carbamoyl}methoxy)ethyl]-1H-pyrazol-3-yl}amino)-1H-pyrazole-4-carboxamide] are under 10 nM, 1000 to 10000 nM and over 10000 nM.
The corresponding values for `Cc1ncsc1-c1ccc(CNC(=O)[C@@H]2C[C@@H](O)CN2C(=O)[C@@H](NC(=O)COCCOCCn2ccc(Nc3[nH]nc(-c4ccc(NS(=O)(=O)C(F)F)c(O[C@@H](C)c5ccc(F)cc5)c4)c3C(N)=O)n2)C(C)(C)C)cc1` [Compound 1037, 3-[4-(difluoromethanesulfonamido)-3-[(1S)-1-(4-fluorophenyl)ethoxy]phenyl]-5-[(1-{2-[2-({[(2S)-1-[(2S,4R)-4-hydroxy-2-({[4-(4-methyl-1,3-thiazol-5-yl)phenyl]methyl}carbamoyl)pyrrolidin-1-yl]-3,3-dimethyl-1-oxobutan-2-yl]carbamoyl}methoxy)ethoxy]ethyl}-1H-pyrazol-3-yl)amino]-1H-pyrazole-4-carboxamide] are under 10 nM, under 1000 nM and over 10000 nM.
In turn, `CCS(=O)(=O)Nc1ccc(-c2n[nH]c(Nc3ccc(C(=O)OCCOCC(=O)N[C@H](C(=O)N4C[C@H](O)C[C@H]4C(=O)NCc4ccc(-c5scnc5C)cc4)C(C)(C)C)cn3)c2C(N)=O)cc1O[C@@H](C)c1ccc(F)cc1` [Compound 1046, 2-({[(2S)-1-[(2S,4R)-4-hydroxy-2-({[4-(4-methyl-1,3-thiazol-5-yl)phenyl]methyl}carbamoyl)pyrrolidine-1-yl]-3,3-dimethyl-1-oxobutan-2-yl]carbamoyl}methoxy)ethyl 6-[(4-carbamoyl-3-{4-ethanesulfonamido-3-[(1S)-1-(4-fluorophenyl)ethoxy]phenyl}-1H-pyrazol-5-yl)amino]pyridine-3-carboxylate] displayed a dissociation constant Kd on MLKL (full length) of 10 to 1000 nM. Also, the IC50 in assay [1] was under 1000 nM; in the assay on U937 cells it was over 10000 nM.
For `Cc1ncsc1-c1ccc(CNC(=O)[C@@H]2C[C@@H](O)CN2C(=O)[C@@H](NC(=O)CCCCC#Cc2ccc(Nc3[nH]nc(-c4ccc(NS(=O)(=O)C(F)F)c(O[C@@H](C)c5ccc(F)cc5)c4)c3C(N)=O)nc2)C(C)(C)C)cc1` [Compound 1047, 3-[4-(difluoromethanesulfonamido)-3-[(1 S)-1-(4-fluorophenyl)ethoxy]phenyl]-5-{[5-(6-{[(2S)-1-[(2S,4R)-4-hydroxy-2-({[4-(4-methyl-1,3-thiazol-5-yl)phenyl]methyl}carbamoyl)pyrrolidin-1-yl]-3,3-dimethyl-1-oxobutan-2-yl]carbamoyl}hex-1-yn-1-yl)pyridin-2-yl]amino}-1H-pyrazole-4-carboxamide], the Kd at MLKL (full length) is 10 to 1000 nM. The IC50 in assay [1] was under 1000 nM; in the assay with U937 cells, 1000 to 10000 nM.
The corresponding values for `Cc1ncsc1-c1ccc(CNC(=O)[C@@H]2C[C@@H](O)CN2C(=O)[C@@H](NC(=O)CCCCOC(=O)c2ccc(Nc3[nH]nc(-c4ccc(NS(=O)(=O)C(F)F)cc4)c3C(N)=O)nc2)C(C)(C)C)cc1` [Compound 1049, 4-{[(2S)-1-[(2S,4R)-4-hydroxy-2-({[4-(4-methyl-1,3-thiazol-5-yl)phenyl]methyl}carbamoyl)pyrrolidine-1-yl]-3,3-dimethyl-1-oxobutan-2-yl]carbamoyl}butyl 6-({4-carbamoyl-3-[4-(difluoromethanesulfonamido)phenyl]-1H-pyrazol-5-yl}amino)pyridine-3-carboxylate] are under 10 nM, 1000 to 10000 nM and over 10000 nM.
On the same counts, the results for `CCS(=O)(=O)Nc1ccc(-c2n[nH]c(Nc3ccc(C(=O)OCCCCC(=O)N[C@H](C(=O)N4C[C@H](O)C[C@H]4C(=O)NCc4ccc(-c5scnc5C)cc4)C(C)(C)C)cn3)c2C(N)=O)cc1OCc1ccc(F)cc1` [Compound 1052, 4-{[(2S)-1-[(2S,4R)-4-hydroxy-2-{{[4-(4-methyl-1,3-thiazol-5-yl)phenyl]methyl}carbamoyl)pyrrolidin-1-yl]-3,3-dimethyl-1-oxobutan-2-yl]carbamoyl}butyl 6-[(4-carbamoyl-3-{4-ethanesulfonamido-3-[(4-fluorophenyl)methoxy]phenyl}-1H-pyrazol-5-yl)amino]pyridine-3-carboxylate] are 1000 to 30000 nM, over 10000 nM and over 10000 nM.
On the same counts, the results for `Cc1ncsc1-c1ccc(CNC(=O)[C@@H]2C[C@@H](O)CN2C(=O)[C@@H](NC(=O)CCCCOC(=O)c2ccc(Nc3[nH]nc(-c4ccc(NS(=O)(=O)C(F)F)c(OCc5ccc(F)cc5)c4)c3C(N)=O)nc2)C(C)(C)C)cc1` [Compound 1055, 4-{[(2S)-1-[(2S,4R)-4-hydroxy-2-({[4-(4-methyl-1,3-thiazol-5-yl)phenyl]methyl}carbamoyl)pyrrolidin-1-yl]-3,3-dimethyl-1-oxobutan-2-yl]carbamoyl}butyl 6-({4-carbamoyl-3-[4-(difluoromethanesulfonamido)-3-[(4-fluorophenyl)methoxy]phenyl]-1H-pyrazol-5-yl}amino)pyridine-3-carboxylate] are 10 to 1000 nM, under 1000 nM and over 10000 nM.
The compound `CCS(=O)(=O)Nc1ccc(-c2n[nH]c(Nc3ccc(C(=O)OCCCCC(=O)N[C@H](C(=O)N4C[C@H](O)C[C@H]4C(=O)NCc4ccc(-c5scnc5C)cc4)C(C)(C)C)cn3)c2C(N)=O)cc1` [Compound 1060, 4-{[(2S)-1-[(2S,4R)-4-hydroxy-2-({[4-(4-methyl-1,3-thiazol-5-yl)phenyl]methyl}carbamoyl)pyrrolidin-1-yl]-3,3-dimethyl-1-oxobutan-2-yl]carbamoyl}butyl 6-{[4-carbamoyl-3-(4-ethanesulfonamidophenyl)-1H-pyrazol-5-yl]amino}pyridine-3-carboxylate] gave a Kd on MLKL (full length) of 10 to 1000 nM. The IC50 in assay [1] is under 1000 nM; with U937 cells it was over 10000 nM.
